In patent US20240270821A1, “GIP/GLP1/GCG TRI-RECEPTOR AGONISTS AND USES THEREOF” (priority 2023, published 2024):
Starred links: 1 amine or outer side, 2 acyl side, 3 side chain; linkers in the order of their positions; H or OH if unused. Non-standard residues stand in square brackets, D forms with d. Residues, ends and D or L forms follow the SMILES beside them. Groups on a side chain read outwards from the residue. *: point of attachment. C18 diacid = O=C(O)CCCCCCCCCCCCCCCCC(=O)*; αMePhe(2-F) = C[C@](N)(Cc1ccccc1F)C(=O)O; γGlu = O=C(O)[C@H](CCC(=O)[*:2])N[*:1]; αMeY = C[C@](N)(Cc1ccc(O)cc1)C(=O)O; 4Pal = N[C@@H](Cc1ccncc1)C(=O)O; αMeL = CC(C)C[C@](C)(N)C(=O)O; αMeS = C[C@](N)(CO)C(=O)O; Orn = NCCC[C@H](N)C(=O)O; AEEA = NCCOCCOCC(=O)O; Aib = CC(C)(N)C(=O)O

Legend:
Type in all cases: cell-based
hGIPR [1] = biological target: T1, hGIPR (Homo sapiens, UniProt P48546); experiment: Functional cAMP activity in the presence of 1% HSA; details: read-out: cAMP Rel EC50, hGIPR
T1 sequence (P48546 22-466): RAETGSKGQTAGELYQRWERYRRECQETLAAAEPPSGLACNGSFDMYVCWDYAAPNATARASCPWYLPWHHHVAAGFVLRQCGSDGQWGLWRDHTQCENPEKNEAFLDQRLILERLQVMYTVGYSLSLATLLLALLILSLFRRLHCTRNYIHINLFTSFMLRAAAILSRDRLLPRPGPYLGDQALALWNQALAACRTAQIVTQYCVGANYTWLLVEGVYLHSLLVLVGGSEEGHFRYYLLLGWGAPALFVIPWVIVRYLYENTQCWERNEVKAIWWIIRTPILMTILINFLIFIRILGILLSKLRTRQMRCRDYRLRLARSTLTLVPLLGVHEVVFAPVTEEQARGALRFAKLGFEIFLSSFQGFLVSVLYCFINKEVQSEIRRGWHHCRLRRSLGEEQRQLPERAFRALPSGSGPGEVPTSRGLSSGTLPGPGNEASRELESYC

hGLP-1R [2] = biological target: T2, hGLP-1R (Homo sapiens, UniProt P43220); experiment: Functional cAMP activity in the presence of 1% HSA; details: read-out: cAMP Rel EC50, hGLP-1R
T2 sequence (P43220 24-463): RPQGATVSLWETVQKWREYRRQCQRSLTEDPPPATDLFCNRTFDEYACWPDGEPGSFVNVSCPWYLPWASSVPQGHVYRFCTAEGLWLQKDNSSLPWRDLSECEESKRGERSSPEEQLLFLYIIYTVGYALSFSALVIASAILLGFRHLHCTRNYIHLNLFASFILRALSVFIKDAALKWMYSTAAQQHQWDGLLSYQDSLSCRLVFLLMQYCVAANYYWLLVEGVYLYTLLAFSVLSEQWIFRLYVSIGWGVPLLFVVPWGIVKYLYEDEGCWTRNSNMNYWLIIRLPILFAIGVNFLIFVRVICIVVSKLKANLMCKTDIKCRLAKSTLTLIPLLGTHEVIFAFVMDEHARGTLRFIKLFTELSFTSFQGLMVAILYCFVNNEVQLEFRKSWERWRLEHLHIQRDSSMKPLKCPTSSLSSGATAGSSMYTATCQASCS

human GcgR = human GcgR (Homo sapiens, UniProt P47871); experiment: Functional cAMP activity in the presence of 1% HSA; details: read-out: cAMP Rel EC50, hGcgR
Sequence of human GcgR (P47871 26-477): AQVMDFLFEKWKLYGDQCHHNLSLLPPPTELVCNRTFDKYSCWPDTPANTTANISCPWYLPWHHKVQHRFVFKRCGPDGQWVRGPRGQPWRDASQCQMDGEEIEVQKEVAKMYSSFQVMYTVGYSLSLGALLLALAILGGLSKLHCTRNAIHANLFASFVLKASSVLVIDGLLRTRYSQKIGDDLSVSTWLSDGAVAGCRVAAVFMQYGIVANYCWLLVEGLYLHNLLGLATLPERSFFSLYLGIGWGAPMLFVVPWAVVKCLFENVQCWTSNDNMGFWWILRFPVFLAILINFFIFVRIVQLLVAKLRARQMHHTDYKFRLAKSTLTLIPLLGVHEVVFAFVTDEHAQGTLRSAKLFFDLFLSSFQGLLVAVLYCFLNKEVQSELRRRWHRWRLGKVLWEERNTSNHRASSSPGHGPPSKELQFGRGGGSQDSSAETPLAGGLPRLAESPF

hGIPR [3] = biological target: T1, hGIPR; experiment: Functional cAMP activation in the presence of 0.1% casein (no HSA); details: read-out: Relative cAMP EC50, hGIPR;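 on Relative cAMP EC50, hGIPR: intracellular cAMP rise after 30 min at 37 °C read by HTRF against a standard curve, scaled between buffer alone (0%) and top control ligand concentration (100%), four-parameter fit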;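 on Relative cAMP EC50, hGLP-1R: intracellular cAMP rise after 30 min at 37 °C read by HTRF, normalized between buffer only (0%) and maximal control ligand (100%), four-parameter variable-slope fit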;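 on Relative cAMP EC50, hGcgR: intracellular cAMP rise after 30 min at 37 °C, read by HTRF against a cAMP standard curve, scaled from buffer only (0%) to maximal control ligand response (100%)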
hGLP-1R [4] = biological target: T2, hGLP-1R; experiment: as above; details: read-out: Relative cAMP EC50, hGLP-1R
hGcgR = hGcgR (Homo sapiens, UniProt P47871); experiment: as above; details: read-out: Relative cAMP EC50, hGcgR;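 further: intracellular cAMP rise after 30 min at 37 °C, read by HTRF against a cAMP standard curve, scaled from buffer only (0%) to maximal control ligand response (100%)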
Sequence of hGcgR (P47871 26-477): as above

SMILES	EC50 (hGIPR [1])	EC50 (hGLP-1R [2])	EC50 (human GcgR)	EC50 (hGIPR [3])	EC50 (hGLP-1R [4])	EC50 (hGcgR)
CC[C@H](C)[C@H](NC(=O)[C@H](Cc1ccccc1)NC(=O)[C@H](C)NC(=O)C(C)(C)NC(=O)[C@H](CCC(N)=O)NC(=O)[C@H](C)NC(=O)[C@H](CCCCNC(=O)COCCOCCNC(=O)CC[C@H](NC(=O)CCCCCCCCCCCCCCCCC(=O)O)C(=O)O)NC(=O)[C@H](CCCCN)NC(=O)[C@H](CC(=O)O)NC(=O)[C@H](CC(C)C)NC(=O)[C@](C)(CC(C)C)NC(=O)[C@@H](NC(=O)[C@H](CO)NC(=O)[C@H](Cc1ccc(O)cc1)NC(=O)[C@H](CC(=O)O)NC(=O)[C@H](CO)NC(=O)[C@@H](NC(=O)[C@](C)(Cc1ccccc1F)NC(=O)[C@@H](NC(=O)CNC(=O)[C@H](CCC(N)=O)NC(=O)C(C)(C)NC(=O)[C@@H](N)Cc1ccc(O)cc1)[C@@H](C)O)[C@@H](C)O)[C@@H](C)CC)C(=O)N[C@@H](CCC(=O)O)C(=O)N[C@@H](Cc1ccc(O)cc1)C(=O)N[C@@H](CC(C)C)C(=O)N[C@@H](CCC(=O)O)C(=O)N[C@@H](CCC(=O)O)C(=O)NCC(=O)NCC(=O)N1CCC[C@H]1C(=O)N[C@@H](CO)C(=O)N[C@@H](CO)C(=O)NCC(=O)N[C@@H](C)C(=O)N1CCC[C@H]1C(=O)N1CCC[C@H]1C(=O)N1CCC[C@H]1C(=O)N[C@@H](CCC(=O)O)C(N)=O [Example 400] (H-Y[Aib]QGT[αMePhe(2-F)]TSDYSI[αMeL]LDKK([AEEA-γGlu-C18 diacid])AQ[Aib]AFIEYLEEGGPSSGAPPPE-NH2)	3.86 nM	29.1 nM	265 nM	0.0158 nM	0.253 nM	2.53 nM
CC[C@H](C)[C@H](NC(=O)[C@H](Cc1ccccc1)NC(=O)[C@H](CCCN)NC(=O)C(C)(C)NC(=O)[C@H](CCC(N)=O)NC(=O)[C@H](C)NC(=O)[C@H](CCCCNC(=O)COCCOCCNC(=O)COCCOCCNC(=O)CC[C@H](NC(=O)CCCCCCCCCCCCCCCCC(=O)O)C(=O)O)NC(=O)[C@H](CCCN)NC(=O)[C@H](CC(=O)O)NC(=O)[C@H](CC(C)C)NC(=O)[C@](C)(CC(C)C)NC(=O)[C@@H](NC(=O)[C@](C)(CO)NC(=O)[C@H](Cc1ccc(O)cc1)NC(=O)[C@H](CC(=O)O)NC(=O)[C@H](CO)NC(=O)[C@@H](NC(=O)[C@](C)(Cc1ccccc1F)NC(=O)[C@@H](NC(=O)CNC(=O)[C@H](CCC(N)=O)NC(=O)C(C)(C)NC(=O)[C@@H](N)Cc1ccc(O)cc1)[C@@H](C)O)[C@@H](C)O)[C@@H](C)CC)C(=O)N[C@H](CCC(=O)O)C(=O)N[C@@](C)(Cc1ccc(O)cc1)C(=O)N[C@@H](CC(C)C)C(=O)N[C@@H](CCC(=O)O)C(=O)N[C@@H](CCC(=O)O)C(=O)NCC(=O)NCC(=O)N1CCC[C@H]1C(=O)N[C@@H](CO)C(=O)N[C@@H](CO)C(=O)NCC(=O)N[C@@H](CCC(=O)O)C(=O)N1CCC[C@H]1C(=O)N1CCC[C@H]1C(=O)N1CCC[C@H]1C(=O)N[C@@H](CCC(=O)O)C(N)=O [Example 402] (H-Y[Aib]QGT[αMePhe(2-F)]TSDY[αMeS]I[αMeL]LD[Orn]K([AEEA-AEEA-γGlu-C18 diacid])AQ[Aib][Orn]FI[dE][αMeY]LEEGGPSSGEPPPE-NH2; N-terminus assumed)	44.9 nM	86.6 nM	1030 nM	0.123 nM	0.725 nM	5.66 nM
CC[C@H](C)[C@H](NC(=O)[C@H](Cc1ccccc1)NC(=O)[C@H](C)NC(=O)C(C)(C)NC(=O)[C@H](CCC(N)=O)NC(=O)[C@H](C)NC(=O)[C@H](CCCCNC(=O)CC[C@H](NC(=O)CC[C@H](NC(=O)CCCCCCCCCCCCCCCCC(=O)O)C(=O)O)C(=O)O)NC(=O)[C@H](CCCCN)NC(=O)[C@H](CC(=O)O)NC(=O)[C@H](CC(C)C)NC(=O)[C@H](CC(C)C)NC(=O)[C@@H](NC(=O)[C@H](CO)NC(=O)[C@H](Cc1ccc(O)cc1)NC(=O)[C@H](CC(=O)O)NC(=O)[C@H](CO)NC(=O)[C@@H](NC(=O)[C@](C)(Cc1ccccc1F)NC(=O)[C@@H](NC(=O)CNC(=O)[C@H](CCC(N)=O)NC(=O)C(C)(C)NC(=O)[C@@H](N)Cc1ccc(O)cc1)[C@@H](C)O)[C@@H](C)O)[C@@H](C)CC)C(=O)N[C@@H](CCC(=O)O)C(=O)N[C@@H](Cc1ccc(O)cc1)C(=O)N[C@@H](CC(C)C)C(=O)N[C@@H](CCC(=O)O)C(=O)N[C@@H](CCC(=O)O)C(=O)NCC(=O)NCC(=O)N1CCC[C@H]1C(=O)N[C@@H](CO)C(=O)N[C@@H](CO)C(=O)NCC(=O)N[C@@H](C)C(=O)N1CCC[C@H]1C(=O)N1CCC[C@H]1C(=O)N1CCC[C@H]1C(=O)N[C@@H](CO)C(N)=O [Example 406] (H-Y[Aib]QGT[αMePhe(2-F)]TSDYSILLDKK([γGlu-γGlu-C18 diacid])AQ[Aib]AFIEYLEEGGPSSGAPPPS-NH2)	10.5 nM	27.8 nM	254 nM	0.0233 nM	0.208 nM	1.23 nM
CC[C@H](C)[C@H](NC(=O)[C@H](Cc1ccccc1)NC(=O)[C@H](C)NC(=O)C(C)(C)NC(=O)[C@H](CCC(N)=O)NC(=O)[C@H](C)NC(=O)[C@H](CCCCNC(=O)COCCOCCNC(=O)CC[C@H](NC(=O)CCCCCCCCCCCCCCCCC(=O)O)C(=O)O)NC(=O)[C@H](CCCCN)NC(=O)[C@H](CC(=O)O)NC(=O)[C@H](CC(C)C)NC(=O)[C@H](CC(C)C)NC(=O)[C@@H](NC(=O)[C@H](CO)NC(=O)[C@H](Cc1ccc(O)cc1)NC(=O)[C@H](CC(=O)O)NC(=O)[C@H](CO)NC(=O)[C@@H](NC(=O)[C@](C)(Cc1ccccc1F)NC(=O)[C@@H](NC(=O)CNC(=O)[C@H](CCC(N)=O)NC(=O)C(C)(C)NC(=O)[C@@H](N)Cc1ccc(O)cc1)[C@@H](C)O)[C@@H](C)O)[C@@H](C)CC)C(=O)N[C@@H](CCC(=O)O)C(=O)N[C@@H](Cc1ccc(O)cc1)C(=O)N[C@@H](CC(C)C)C(=O)N[C@@H](CCC(=O)O)C(=O)N[C@@H](CCC(=O)O)C(=O)NCC(=O)NCC(=O)N1CCC[C@H]1C(=O)N[C@@H](CO)C(=O)N[C@@H](CO)C(=O)NCC(=O)N[C@@H](CCC(=O)O)C(=O)N1CCC[C@H]1C(=O)N1CCC[C@H]1C(=O)N1CCC[C@H]1C(=O)N[C@@H](CO)C(N)=O [Example 407]	11.7 nM	37.2 nM	485 nM	0.0362 nM	0.259 nM	1.49 nM
CC[C@H](C)[C@H](NC(=O)[C@H](Cc1ccccc1)NC(=O)[C@H](C)NC(=O)C(C)(C)NC(=O)[C@H](CCC(N)=O)NC(=O)[C@H](C)NC(=O)[C@H](CCCCNC(=O)COCCOCCNC(=O)CC[C@H](NC(=O)CCCCCCCCCCCCCCCCC(=O)O)C(=O)O)NC(=O)[C@H](CCCCN)NC(=O)[C@H](CC(=O)O)NC(=O)[C@H](CC(C)C)NC(=O)[C@H](CC(C)C)NC(=O)[C@H](CO)NC(=O)[C@H](CO)NC(=O)[C@H](Cc1ccc(O)cc1)NC(=O)[C@H](CC(=O)O)NC(=O)[C@H](CO)NC(=O)[C@@H](NC(=O)[C@](C)(Cc1ccccc1F)NC(=O)[C@@H](NC(=O)CNC(=O)[C@H](CCC(N)=O)NC(=O)C(C)(C)NC(=O)[C@@H](N)Cc1ccc(O)cc1)[C@@H](C)O)[C@@H](C)O)C(=O)N[C@@H](CCC(=O)O)C(=O)N[C@@H](Cc1ccc(O)cc1)C(=O)N[C@@H](CC(C)C)C(=O)N[C@@H](CCC(=O)O)C(=O)N[C@@H](CCC(=O)O)C(=O)NCC(=O)NCC(=O)N1CCC[C@H]1C(=O)N[C@@H](CO)C(=O)N[C@@H](CO)C(=O)NCC(=O)N[C@@H](C)C(=O)N1CCC[C@H]1C(=O)N1CCC[C@H]1C(=O)N1CCC[C@H]1C(=O)N[C@@H](CO)C(N)=O [Example 409] (H-Y[Aib]QGT[αMePhe(2-F)]TSDYSSLLDKK([AEEA-γGlu-C18 diacid])AQ[Aib]AFIEYLEEGGPSSGAPPPS-NH2)	66.6 nM	41.7 nM	1190 nM	0.363 nM	0.484 nM	7.92 nM
CC[C@H](C)[C@H](NC(=O)[C@H](Cc1ccccc1)NC(=O)[C@H](C)NC(=O)C(C)(C)NC(=O)[C@H](CCC(N)=O)NC(=O)[C@H](C)NC(=O)[C@H](CCCCNC(=O)CC[C@H](NC(=O)CC[C@H](NC(=O)CCCCCCCCCCCCCCCCC(=O)O)C(=O)O)C(=O)O)NC(=O)[C@H](CCCCN)NC(=O)[C@H](CC(=O)O)NC(=O)[C@H](CC(C)C)NC(=O)[C@H](CC(C)C)NC(=O)[C@@H](NC(=O)[C@H](CO)NC(=O)[C@H](Cc1ccncc1)NC(=O)[C@H](CC(=O)O)NC(=O)[C@H](CO)NC(=O)[C@@H](NC(=O)[C@](C)(Cc1ccccc1F)NC(=O)[C@@H](NC(=O)CNC(=O)[C@H](CCC(N)=O)NC(=O)C(C)(C)NC(=O)[C@@H](N)Cc1ccc(O)cc1)[C@@H](C)O)[C@@H](C)O)[C@@H](C)CC)C(=O)N[C@@H](CCC(=O)O)C(=O)N[C@@H](Cc1ccc(O)cc1)C(=O)N[C@@H](CC(C)C)C(=O)N[C@@H](CCC(=O)O)C(=O)N[C@@H](CCC(=O)O)C(=O)NCC(=O)NCC(=O)N1CCC[C@H]1C(=O)N[C@@H](CO)C(=O)N[C@@H](CO)C(=O)NCC(=O)N[C@@H](C)C(=O)N1CCC[C@H]1C(=O)N1CCC[C@H]1C(=O)N1CCC[C@H]1C(=O)N[C@@H](CO)C(N)=O [Example 413] (H-Y[Aib]QGT[αMePhe(2-F)]TSD[4Pal]SILLDKK([γGlu-γGlu-C18 diacid])AQ[Aib]AFIEYLEEGGPSSGAPPPS-NH2)	23.5 nM	41.4 nM	629 nM	0.0881 nM	0.564 nM	6.3 nM
